# Source: patent US20160177395A1, “BIOMARKERS FOR THE PREDICTION OF RENAL INJURY” (priority 2007, published 2016)
# Values joined by “and” are separate entries in the source; they are usually repeats but may differ in a detail not shown here. Identical values can stand only once. “Also recorded” adds a separate entry of the source.
# Tests used:
# [1] = system: kidney tissues of treated or untreated rats; assay: Real-time qRT-PCR of signature amplicons, validation stage, labeled and un-labeled samples (Table 23); details: for H31883_DB71_seg13 normalized qRT-PCR result / MUSCYCG1R_DB81_seg19-20 normalized qRT-PCR result / W41270_DB81_seg11 normalized qRT-PCR result: labeled sample, one line per animal; for H31883_DB71_seg13 normalized qRT-PCR expression (Cyclin-G1 (CCNG1) transcript) / MUSCYCG1R_DB81_seg19-20 normalized qRT-PCR expression / W41270_DB81_seg11 normalized qRT-PCR expression (tumor necrosis factor receptor superfamily, member 12a transcript) / AI045075_DB71_seg6 normalized qRT-PCR expression (Interferon stimulated exonuclease 20 (ISG20) transcript) / W64472_DB81_seg2 normalized qRT-PCR expression (Interferon stimulated exonuclease 20 (ISG20) transcript) / W83813_DB81_seg27 normalized qRT-PCR expression: labeled samples; for Label: true label (Normal/Toxic), known renal toxic effect: rat, in vivo
# Summary of the method: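 Rat kidney RNA, labeled and un-labeled samples, run over seven plates; two amplicons per signature gene (wild-type and splice variant). Values normalized to housekeeping genes, then per plate and amplicon by geometric mean of ratios against a shuffled normalization plate (outliers removed), then scaled.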
# [2] = system: Sprague-Dawley Crl:CD(SD) rats; details: rat, in vivo;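 further: control rats received saline intraperitoneally, and the organs examined were adrenals, brain, kidneys, liver, spleen and thymus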
# Experimental: (§1) Control animals were treated intraperitoneal with saline.
# (§2) Randomization and group allocation: prior to treatment, the animals were assigned to the experimental groups based on their body weight. Mean body weight of each group at randomization was not deviate±20% of the mean population weight. Males and females were randomized separately. For the randomization, a computer program was used.
# (§3) The day before autopsy, urinalysis was performed and blood samples were taken for hematology and clinical chemistry examinations.
# (§4) On the day of autopsy the animals were anaesthetized with isoflurane, blood was collected for PBMC isolation then subjected to autopsy. Tissues and organs (adrenals, brain, kidneys, liver, spleen and thymus) were weighed and subjected to gross pathological and histopathological examinations.
# [3] = system: Sprague-Dawley Crl:CD(SD) rats; assay: Rat toxicity study, single, 5-day and 28-day treatment (clinical observation, clinical pathology, autopsy, organ weights, histopathology);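 further: control rats received saline intraperitoneally, and the organs examined were adrenals, brain, kidneys, liver, spleen and thymus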
# Experimental: as §1, §2, §3, §4
# [4] = day1, female rat kidney, listed as Tob
# [5] = day1, male rat kidney, listed as Tob
# [6] = day28, female rat kidney, listed as Tob
# [7] = day28, male rat kidney, listed as Tob
# [8] = day1, kidney of individual male/female rats, listed as Tob
# [9] = day5, kidney of individual male/female rats, listed as Tob
# [10] = day28, kidney of individual male/female rats, listed as Tob
# [11] = day1, kidney of individual male/female rats, listed as ValpA
# [12] = day5, kidney of individual male/female rats, listed as ValpA
# [13] = day28, kidney of individual male/female rats, listed as ValpA
smiles,measurement,setting,value
NC[C@H]1O[C@H](O[C@H]2[C@H](O)[C@@H](O[C@H]3O[C@H](CO)[C@@H](O)[C@H](N)[C@H]3O)[C@H](N)C[C@@H]2N)[C@H](N)C[C@@H]1O [Tobramycin],H31883_DB71_seg13 normalized qRT-PCR result,[1]; [4],1.153 and 0.799 and 0.982
same,MUSCYCG1R_DB81_seg19-20 normalized qRT-PCR result,[1]; [4],5.307 and 1.195 and 1.623
same,W41270_DB81_seg11 normalized qRT-PCR result,[1]; [4],1.5 and 0.73 and 1.166
same,H31883_DB71_seg13 normalized qRT-PCR result,[1]; [5],1.126 and 0.999 and 1.049
same,MUSCYCG1R_DB81_seg19-20 normalized qRT-PCR result,[1]; [5],2.04 and 0.825 and 1.223
same,W41270_DB81_seg11 normalized qRT-PCR result,[1]; [5],1.43 and 1.083 and 1.619
same,H31883_DB71_seg13 normalized qRT-PCR result,[1]; [6],0.876 and 0.621 and 0.987
same,MUSCYCG1R_DB81_seg19-20 normalized qRT-PCR result,[1]; [6],0.959 and 1.021 and 1.478
same,W41270_DB81_seg11 normalized qRT-PCR result,[1]; [6],1.073 and 1.144 and 1.118
same,H31883_DB71_seg13 normalized qRT-PCR result,[1]; [7],0.39 and 0.832 and 0.803
same,MUSCYCG1R_DB81_seg19-20 normalized qRT-PCR result,[1]; [7],0.679 and 1.273 and 1.397
same,W41270_DB81_seg11 normalized qRT-PCR result,[1]; [7],0.61 and 1.379 and 1.281
same,H31883_DB71_seg13 normalized qRT-PCR expression (Cyclin-G1 (CCNG1) transcript),[1]; [8],1.137 and 1.104 and 1.132 and 0.912 and 0.563 and 0.661
same,MUSCYCG1R_DB81_seg19-20 normalized qRT-PCR expression,[1]; [8],1.582 and 0.967 and 1.506 and 1.173 and 1.025 and 0.987
same,"W41270_DB81_seg11 normalized qRT-PCR expression (tumor necrosis factor receptor superfamily, member 12a transcript)",[1]; [8],1.601 and 1.084 and 0.577 and 0.949 and 0.809 and 0.983
same,AI045075_DB71_seg6 normalized qRT-PCR expression (Interferon stimulated exonuclease 20 (ISG20) transcript),[1]; [9],1.327 and 1.644 and 1.614 and 1.367 and 2.402 and 1.224
same,H31883_DB71_seg13 normalized qRT-PCR expression (Cyclin-G1 (CCNG1) transcript),[1]; [9],0.863 and 0.855 and 1.237 and 0.988 and 0.858 and 1.646
same,MUSCYCG1R_DB81_seg19-20 normalized qRT-PCR expression,[1]; [9],0.99 and 1.589 and 0.968 and 1.6 and 1.424 and 2.062
same,"W41270_DB81_seg11 normalized qRT-PCR expression (tumor necrosis factor receptor superfamily, member 12a transcript)",[1]; [9],0.559 and 2.483 and 0.802 and 1.529 and 2.317 and 0.946
same,W64472_DB81_seg2 normalized qRT-PCR expression (Interferon stimulated exonuclease 20 (ISG20) transcript),[1]; [9],1.193 and 1.871 and 1.449 and 1.063 and 1.785 and 1.447
same,W83813_DB81_seg27 normalized qRT-PCR expression,[1]; [9],0.589 and 1.262 and 0.892 and 1.058 and 0.942 and 1.117
same,H31883_DB71_seg13 normalized qRT-PCR expression (Cyclin-G1 (CCNG1) transcript),[1]; [10],0.624 and 0.324 and 0.69 and 0.528 and 0.551 and 0.807
same,MUSCYCG1R_DB81_seg19-20 normalized qRT-PCR expression,[1]; [10],0.713 and 0.76 and 1.087 and 0.889 and 1.268 and 0.903
same,"W41270_DB81_seg11 normalized qRT-PCR expression (tumor necrosis factor receptor superfamily, member 12a transcript)",[1]; [10],1.189 and 1.217 and 1.099 and 1.267 and 1.373 and 1.798
same,"Label: true label (Normal/Toxic), known renal toxic effect",[1],Toxic
same,Water consumption,[2],Decrease in Tobramycin and Cadmium chloride treated females
same,Autopsy findings,[3]; 5-day treatment,No effect
same,Autopsy findings,"[3]; 28-day treatment, male and female rats","Enlarged, discolored kidneys; also recorded: Alterations were found in the kidneys; also recorded: ♂: ↑↑, pale"
CCCC(CCC)C(=O)O [Valproic acid],AI045075_DB71_seg6 normalized qRT-PCR expression (Interferon stimulated exonuclease 20 (ISG20) transcript),[1]; [11],1.006 and 1.436 and 2.189 and 0.983 and 1.098 and 1.522
same,H31883_DB71_seg13 normalized qRT-PCR expression (Cyclin-G1 (CCNG1) transcript),[1]; [11],1.488 and 1.506 and 0.999 and 0.721 and 1.041
same,MUSCYCG1R_DB81_seg19-20 normalized qRT-PCR expression,[1]; [11],2.289 and 1.581 and 1.842 and 1.929 and 0.637 and 0.9
same,"W41270_DB81_seg11 normalized qRT-PCR expression (tumor necrosis factor receptor superfamily, member 12a transcript)",[1]; [11],1.134 and 0.939 and 1.405 and 1.225 and 0.547 and 1.544
same,W64472_DB81_seg2 normalized qRT-PCR expression (Interferon stimulated exonuclease 20 (ISG20) transcript),[1]; [11],1.082 and 1.123 and 1.887 and 0.995 and 1.092 and 1.596
same,W83813_DB81_seg27 normalized qRT-PCR expression,[1]; [11],1.179 and 0.912 and 1.495 and 1.13 and 0.818 and 1.366
same,AI045075_DB71_seg6 normalized qRT-PCR expression (Interferon stimulated exonuclease 20 (ISG20) transcript),[1]; [12],1.017 and 1.145 and 0.997 and 0.883 and 1.052 and 0.877
same,H31883_DB71_seg13 normalized qRT-PCR expression (Cyclin-G1 (CCNG1) transcript),[1]; [12],0.846 and 0.85 and 0.975 and 0.791 and 0.694 and 1.082
same,MUSCYCG1R_DB81_seg19-20 normalized qRT-PCR expression,[1]; [12],1.019 and 1.509 and 1.372 and 0.94 and 1.425 and 1.585
same,"W41270_DB81_seg11 normalized qRT-PCR expression (tumor necrosis factor receptor superfamily, member 12a transcript)",[1]; [12],0.631 and 1.428 and 1.002 and 0.617 and 0.997
same,W64472_DB81_seg2 normalized qRT-PCR expression (Interferon stimulated exonuclease 20 (ISG20) transcript),[1]; [12],0.92 and 1.226 and 1.169 and 0.702 and 0.812 and 0.894
same,W83813_DB81_seg27 normalized qRT-PCR expression,[1]; [12],0.778 and 1.17 and 0.876 and 0.926 and 1.146 and 0.992
same,AI045075_DB71_seg6 normalized qRT-PCR expression (Interferon stimulated exonuclease 20 (ISG20) transcript),[1]; [13],0.696 and 0.906 and 0.669 and 0.822 and 0.77 and 0.719
same,H31883_DB71_seg13 normalized qRT-PCR expression (Cyclin-G1 (CCNG1) transcript),[1]; [13],0.732 and 0.774 and 0.713 and 0.872 and 0.57 and 0.979
same,MUSCYCG1R_DB81_seg19-20 normalized qRT-PCR expression,[1]; [13],0.588 and 1.731 and 0.589 and 1.171 and 1.037 and 0.52
same,"W41270_DB81_seg11 normalized qRT-PCR expression (tumor necrosis factor receptor superfamily, member 12a transcript)",[1]; [13],0.543 and 0.95 and 0.459 and 1.044 and 0.587 and 1.011
same,W64472_DB81_seg2 normalized qRT-PCR expression (Interferon stimulated exonuclease 20 (ISG20) transcript),[1]; [13],1.085 and 0.788 and 0.965 and 1.51 and 0.478 and 0.991
same,W83813_DB81_seg27 normalized qRT-PCR expression,[1]; [13],0.493 and 1.254 and 0.46 and 0.875 and 0.761 and 1.208
same,"Label: true label (Normal/Toxic), known renal toxic effect",[1],Normal
same,Clinical pathology,[2],Slightly lower total protein and Albumin values were found in males
same,Histopathology / renal damage,[2],No renal damage was found
same,Water consumption,[2],Increase in Valproic acid treated females
same,"Water consumption, males",[2],Sight decrease during the last week
